Data from US11730717B1, “Melanin-inspired antimicrobial” (The Board of Regents for the Oklahoma Agricultural and …, priority 2020, dated 2023).
Values after ≈ are worked out from the molar mass of the structure shown. One block for each compound: values may come before it.

What was measured:
[1] = system: Cryptococcus neoformans serotype A strain H99; assay: Antifungal MIC assay; type: cell-based
Experimental: (§1) Cryptococcus neoformans serotype A strain H99 as well as Candida ablicans strain SC5314, were readily available in the lab. The stock of cells is stored at −80° C. to preserve the fungi and prevent contamination. The cells were grown and maintained in yeast extract-peptone-dextrose (YPD) media (Difco). Cryptococcus or Candida cells were incubated in YPD broth for 18 hrs at 30° C., in a shaking incubator. After the incubation period, they were washed three times in sterile phosphate-buffered saline (PBS) to remove all remaining residue of YPD. The cells were then quantified by using trypan blue dye exclusion in a hemocytometer.
(§2) C. neoformans were suspended in RPMI with MOPS, 0.165M, at a concentration of 0.5×10^3 cells/mL. RPMI MOPS media was added to a 96-well plate in a volume of 100 μL to every well, with the exception of column 1. An additional 80 μL of RPMI MOPS was added to column 4 for a total of 180 μL/per well. Amphotericin B or EIPE-1 was added to columns […] with a volume of 20 μL at a concentration of 1 mg/mL. Contents were mixed, then serially diluted 100 μL down the plate until column 11. The last 100 μL was discarded, leaving column 12 blank. C. neoformans was added at a volume of 100 μL per well from column 4 to column 12, so the final volume of the wells was 200 μL. Plates were incubated at 35° C. in a humid incubator for 48 hrs.

[2] = system: Candida albicans strain SC5314; assay: Antifungal MIC assay; type: cell-based; conditions: 35° C., 48 hrs, RPMI with MOPS
Experimental: as §1
as §2, with “C. albicans were suspended” for “C. neoformans were suspended”, “cells/mL. RPMI Mops media was” for “cells/mL. RPMI MOPS media was”, “μL/per well. EIPE-1 was” for “μL/per well. Amphotericin B or EIPE-1 was”, “blank. C. albicans was added” for “blank. C. neoformans was added”

[3] = system: methicillin resistant Staphylococcus aureus (MRSA) clinical isolate; assay: MIC by broth microdilution; type: cell-based; conditions: clinical isolate of MRSA from an adult CF patient; broth culture, 18 h at 37° C.
Experimental: The methicillin resistant Staphylococcus aureus (MRSA) and Pseudomonas aeruginosa (PA) strains used in this study are clinical isolates obtained from an adult CF patient at the Cystic Fibrosis Clinic at the OU Children's Hospital (Oklahoma City, Okla.). Escherichia coli (E. coli) and Enterococcus faecalis (E. faecalis) were obtained from American Type Culture Collection (ATCC). The strains were grown overnight with shaking at 37° C. (220 RPM) in 15 mL of Luria-Bertani (LB) broth. The overnight culture was sub-cultured the next day before use for the MIC experiments. All sub-cultures consisted of 1 mL of the overnight culture, mixed with 10 mL of Mueller Hinton broth. The working stock of the EIPE-1 and DBI was prepared by dissolving 1 mg of each in 1 mL of DMSO.
The minimum inhibitory concentrations (MICs) were determined by the broth microdilution method, following the guidelines of the Clinical and Laboratory Standards Institute (CLSI). Two-fold serial dilutions of EIPE-1, DBI, and Arm (starting with 1 mg/mL) were prepared in a 100 μL volume in 96-well microtiter plates. The dilution series included DMSO as a negative control. The bacterial culture […] was normalized to an OD600 of 0.2 and was then added to each well. Plates were incubated with shaking at 220 RPM at 37° C., and the MIC was determined based on the lowest concentration at which no visible growth of the bacterial isolate was observed.
In order to determine the MIC of EIPE-1 on MRSA, a culture of MRSA was grown overnight in Mueller Hinton broth (MHB) at 37° C., sub-cultured by a 1/100 dilution into MHB and dispensed into a 96 well culture block (900 μL of diluted culture in each well). To each well either DMSO or a serial dilution of EIPE-1 was added, then the culture was grown for 18 h at 37° C. The next day each well was tested for either growth or inhibition of growth by measuring of the OD^600 of the resulting culture. […] For comparison, the MIC of EIPE-1 was also determined against E. faecalis (8 μg/mL, 9 μM), confirming activity against Gram-positive bacteria.

[4] = system: MRSA; assay: Recoverable CFU after exposure to DBI; type: cell-based, Staphylococcus aureus; conditions: MRSA after 4 h of growth with DBI; DMSO control average 1.78×10^8
Experimental: To determine CFUs of PA and MRSA after exposure to DMSO, DBI, EIPE-1, Gentamicin or Methicillin, 10-fold serial dilutions were prepared in 96-well micro plates using multichannel pipettes. For each dilution, 25 ptL of each sample was pipetted onto a plate containing agar medium and incubated for 18 h at 37° C. The number of colonies for each dilution were counted and used to back calculate the number of bacteria per mL (CFU/mL) in each original bacterial culture.
After 4 h of growth, the resulting cultures were plated onto Mannitol Salts Agar (MSA). Decreased bacterial growth and decreased fermentation of the Mannitol (retention of the reddish hue of the MSA plate) could be seen in the MRSA culture exposed to DBI (FIG. 1A) which was confirmed with decreased recoverable CFUs (FIGS. 1B and 1C).

[5] = system: HeLa cells; assay: Cytotoxicity, LDH leakage assay; type: cell-based; conditions: 24-hour exposure, 250 μg/mL (610 μM)
Experimental: HeLa cells were cultured in 96-well plates at 37° C. and 5% CO2 in Roswell Park Memorial Institute (RMPI) 1640 medium with 5% Fetal Bovine Serum (FBS). Once HeLa cells reached 95% confluency, the media was replaced with media containing various concentrations of EIPE-1, DBI or DMSO for 24 hours. Cell cytotoxicity was measured using the lactate dehydrogenase (LDH) leakage assay. Results were compared to maximum values of lysed cells in control wells and were graphed as percent relative cytotoxicity using Prism 5.0.
Host cell cytotoxicity against HeLa cells was examined for both DBI and EIPE-1 (FIG. 2B). LDH release was examined after 24-hour exposure to varying concentrations of DBI, DMSO and EIPE-1. […] Thus, EIPE-1 is relatively safe to use with respect to eukaryotic cells.

[6] = system: MRSA; assay: Live/Dead staining and fluorescent microscopy; type: cell-based, Staphylococcus aureus; conditions: 16 μg/mL, 17 μM, 30 minutes; Syto 9 and propidium iodide
Experimental: MRSA was grown overnight in 10 mL of LB broth, sub-cultured (5 mL of overnight culture added to 20 mL LB) and grown for 3 h. Bacterial culture (150 μL) were removed and transferred to a 1.5 mL centrifuge tube, which was treated with DMSO, EIPE-1 (0.01 mg/mL) or DBI (0.01 mg/mL) for 30 minutes. Equal amounts of the two dyes (SYTO 9 dye, 3.34 mM in DMSO), and propidium iodide (20 mM in DMSO) were mixed. Then 0.5 μL of the dye mixture was added to each tube of treated MRSA cultures. Wet mounts were prepared on glass slides for imaging live and dead MRSA, and Differential Interference Contrast (DIC) images were obtained using a Leica DMI600B fluorescent microscope. To determine the percentage of bacteria alive and dead, the total bacteria in each condition were counted in 20 fields of view and graphed using Prism 5.0.
To address MRSA viability in response to EIPE-1 treatment, a Live/Dead staining and microscopy was utilized. MRSA was treated with either DBI or EIPE-1 (16 μg/mL, 17 μM each) for 30 minutes (DMSO was used as a negative solvent control) and then stained with the dyes, Syto™ 9 and propidium iodide.

[7] = system: MRSA; assay: Kirby-Bauer disc diffusion assay; type: cell-based, Staphylococcus aureus
Experimental: The susceptibility of MRSA to EIPE-1 was determined by the Kirby-Bauer disc diffusion method. Using a cotton swab applicator, a lawn of the S. aureus clinical isolate was placed onto Mueller Hinton agar plates to cover the entire surface of the plate. Filter discs (size=6 mm) were added onto the bacterial lawn. EIPE-1, DBI, and DMSO (10 μL each) were then added onto the filter discs.
The efficacy of compound EIPE-1 was tested by the Kirby-Bauer disc assay. The Kirby-Bauer disc assay assesses the sensitivity of bacteria to antimicrobial agents. If the bacteria are sensitive to the antimicrobial being tested, then a zone of inhibition of bacterial growth is seen around the filter disc containing the antimicrobial. The Kirby-Bauer disc assay was used to test the antimicrobial efficacy of EIPE-1 against MRSA. EIPE-1 was reconstituted at 1 mg/mL in DMSO and serially diluted (10^−1 to 10^−5) after which 10 μL of each dilution (and DMSO as a solvent control) was added to a separate disc on an LB plate inoculated with a lawn of bacteria. The plates were incubated at 37° C. for 24 h, and the resulting radii zone sizes around each disc were then measured.

- Minimum inhibitory concentration (MIC) for the isolate of C. neoformans ([1]; 35° C., 48 hrs, RPMI with MOPS): 0.6825 ± 0.2925 µg·mL
- Minimum inhibitory concentration (MIC) for the isolate of C. albicans [2]: 0.5606 ± 0.1219 µg/mL
SMILES: C[C@@H]1[C@H](O)[C@@H](C)/C=C/C=C/C=C/C=C/C=C/C=C/C=C/[C@H](O[C@@H]2O[C@H](C)[C@@H](O)[C@H](N)[C@@H]2O)C[C@@H]2O[C@](O)(C[C@@H](O)C[C@@H](O)[C@H](O)CC[C@@H](O)C[C@@H](O)CC(=O)O[C@H]1C)C[C@H](O)[C@H]2C(=O)O [Amphotericin B, reference compound]
- minimum inhibitory concentration average, C. neoformans ([1]; across four experiments): 0.6 µg/mL (≈ 0.649 µM)

SMILES: COC(=O)c1cc2c(Br)c(OC)c(OC)c(Br)c2n1C [DBI, methyl 4,7-dibromo-5,6-dimethoxy-1-methyl-1H-indole-2-carboxylate]
- minimum inhibitory concentration (MIC) [3]: could not be determined
- recoverable CFUs (average) [4]: 1.19×10^7 CFU/mL
- cytotoxicity (LDH release) [5]: 30%
- Live/Dead staining (green = intact membrane, red = damaged membrane) [6]: mostly stained green

SMILES: CN(C)CCCOc1ccc(I)cc1 [arms]
- antimicrobial activity independent of the DBI core [7]: did not exhibit any antimicrobial activity
